{
  "source": "paper PMC5607165",
  "about": "“Synthesis of UDP-apiose in Bacteria: The marine phototroph Geminicoccus roseus and the plant pathogen Xanthomonas pisi” (PLoS ONE, 2017)",
  "molecules": {"B1": {"name": "GrUAS (Geminicoccus roseus) (protein)", "chain": "MRVVILGCGGFVGSHLLDNLLRDESYLIEGWDPEDRKIRQHLDNPRFTLHRSIANAPEALVEVERAIRECDVVVNLAAICNPADYNTRPLSVIRANLFEVYPIVELCAKYKRWLVSFSTSETYGRTIASYLPAGTYDDPELYELREDETPLIMGPIRNQRWTYACAKQMTERLIYAHHDEEGLPFTIIRPLNFFGPRMDYIPTRDGDGVPRVLACFMAALLSGEPMQLVDGGQARRTIVSIYEAVDAIRRVLERPETSQNQIFNIGNPNNEVTIAELADAMRRTYARITGDARYNDHPIVVTTADAFYGAGYEDCDRRMPDISKAERLLGWVPRMSLAEVLYGTMQSYHDTYTAPKAA"}},
  "data": [
    {"biological_target": "T1, XpUAS (Xanthomonas pisi, UniProt A0A291B0F1)", "T1 construct": "gene XpiCFBP4643_06440", "T1 sequence (A0A291B0F1 1-375)": "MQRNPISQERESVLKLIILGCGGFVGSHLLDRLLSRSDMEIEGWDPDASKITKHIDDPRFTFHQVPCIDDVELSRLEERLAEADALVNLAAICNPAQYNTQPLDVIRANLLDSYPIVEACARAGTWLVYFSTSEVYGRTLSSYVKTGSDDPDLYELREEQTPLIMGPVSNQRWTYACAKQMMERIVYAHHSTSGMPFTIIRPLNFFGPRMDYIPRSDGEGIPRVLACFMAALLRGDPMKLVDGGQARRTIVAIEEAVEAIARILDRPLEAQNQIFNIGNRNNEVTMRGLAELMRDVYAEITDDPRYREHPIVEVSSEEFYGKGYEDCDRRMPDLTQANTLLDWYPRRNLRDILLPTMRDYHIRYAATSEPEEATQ", "assay": "HILIC-ESI-MS/MS and 1H NMR of products", "type": "biochemical", "conditions": "1 mM NAD+, 1 mM UDP-GlcA, 50 mM Tris-HCl pH 7.9, 37 °C; products UDP-apiose and UDP-xylose", "values": [
      {"molecule": "O=C(O)[C@H]1O[C@H](OP(=O)(O)OP(=O)(O)OC[C@H]2O[C@@H](n3ccc(=O)[nH]c3=O)[C@H](O)[C@@H]2O)[C@H](O)[C@@H](O)[C@@H]1O", "note": "[UDP-GlcA]", "HILIC-ESI-MS/MS and 1H NMR of products": "Each purified UAS was shown by HILIC-ESI-MS/MS to convert UDP-GlcA to two UDP-pentose products"}
    ]},
    {"biological_target": "T2, CeUAS (Candidatus Entotheonella factor, UniProt W4LSK8)", "T2 construct": "gene ETSY1_09345", "T2 sequence (W4LSK8 entry or part of it)": "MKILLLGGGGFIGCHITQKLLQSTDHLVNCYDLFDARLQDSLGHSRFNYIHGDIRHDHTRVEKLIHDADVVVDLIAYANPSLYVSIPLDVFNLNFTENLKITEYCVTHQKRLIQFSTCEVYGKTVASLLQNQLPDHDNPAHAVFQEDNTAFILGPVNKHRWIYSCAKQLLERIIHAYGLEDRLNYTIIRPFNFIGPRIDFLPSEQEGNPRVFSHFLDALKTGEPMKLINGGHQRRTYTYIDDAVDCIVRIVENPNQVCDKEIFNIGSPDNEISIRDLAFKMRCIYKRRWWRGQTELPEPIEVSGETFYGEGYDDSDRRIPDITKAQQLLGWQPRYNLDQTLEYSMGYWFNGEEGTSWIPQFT", "assay": "HILIC-ESI-MS/MS and 1H NMR of products", "type": "biochemical", "conditions": "1 mM NAD+, 1 mM UDP-GlcA, 50 mM Tris-HCl pH 7.9, 37 °C; products UDP-apiose and UDP-xylose", "values": [
      {"molecule": "O=C(O)[C@H]1O[C@H](OP(=O)(O)OP(=O)(O)OC[C@H]2O[C@@H](n3ccc(=O)[nH]c3=O)[C@H](O)[C@@H]2O)[C@H](O)[C@@H](O)[C@@H]1O", "note": "[UDP-GlcA]", "HILIC-ESI-MS/MS and 1H NMR of products": "Each purified UAS was shown by HILIC-ESI-MS/MS to convert UDP-GlcA to two UDP-pentose products"}
    ]},
    {"biological_target": "GrUAS (Geminicoccus roseus, UniProt A0A291B0F6)", "assay": "HPLC, UDP-GlcA consumption with additive", "type": "biochemical", "conditions": "1 mM UDP-GlcA, 1 mM NAD+, 50 mM Tris-HCl pH 7.9, 37 °C; additive concentration not given; residual activity versus water", "text": "HPLC, UDP-GlcA consumption with additive on GrUAS", "units": {"Relative activity (%)^a": "%"}, "values": [
      {"molecule": "Nc1ccn([C@@H]2O[C@H](COP(=O)(O)OP(=O)(O)O)[C@@H](O)[C@H]2O)c(=O)n1", "note": "[CDP]", "Relative activity (%)^a": "85.3 ± 4.6"},
      {"molecule": "Nc1ccn([C@@H]2O[C@H](COP(=O)(O)O)[C@@H](O)[C@H]2O)c(=O)n1", "note": "[CMP]", "Relative activity (%)^a": "93.8 ± 4.5"},
      {"molecule": "Nc1nc2c(ncn2[C@@H]2O[C@H](COP(=O)(O)OP(=O)(O)O)[C@@H](O)[C@H]2O)c(=O)[nH]1", "note": "[GDP]", "Relative activity (%)^a": "85.2 ± 7.9"},
      {"molecule": "Nc1nc2c(ncn2[C@@H]2O[C@H](COP(=O)(O)O)[C@@H](O)[C@H]2O)c(=O)[nH]1", "note": "[GMP]", "Relative activity (%)^a": "94.3 ± 3.7"},
      {"molecule": "NC(=O)C1=CN([C@@H]2O[C@H](COP(=O)(O)OP(=O)(O)OC[C@H]3O[C@@H](n4cnc5c(N)ncnc54)[C@H](O)[C@@H]3O)[C@@H](O)[C@H]2O)C=CC1", "note": "[NADH]", "Relative activity (%)^a": "105.3 ± 1.9"},
      {"molecule": "NC(=O)C1=CN([C@@H]2O[C@H](COP(=O)(O)OP(=O)(O)OC[C@H]3O[C@@H](n4cnc5c(N)ncnc54)[C@H](OP(=O)(O)O)[C@@H]3O)[C@@H](O)[C@H]2O)C=CC1", "note": "[NADPH]", "Relative activity (%)^a": "82.6 ± 0.9"},
      {"molecule": "NC(=O)c1ccc[n+]([C@@H]2O[C@H](COP(=O)(O)OP(=O)(O)OC[C@H]3O[C@@H](n4cnc5c(N)ncnc54)[C@H](OP(=O)(O)O)[C@@H]3O)[C@@H](O)[C@H]2O)c1", "note": "[NADP]", "Relative activity (%)^a": "79.6 ± 3.3"},
      {"molecule": "Cc1cn([C@H]2C[C@H](O)[C@@H](COP(=O)(O)OP(=O)(O)O)O2)c(=O)[nH]c1=O", "note": "[TDP]", "Relative activity (%)^a": "85.0 ± 4.8"},
      {"molecule": "Cc1cn([C@H]2C[C@H](O)[C@@H](COP(=O)(O)O)O2)c(=O)[nH]c1=O", "note": "[TMP]", "Relative activity (%)^a": "87.9 ± 4.9"},
      {"molecule": "O=c1ccn([C@@H]2O[C@H](COP(=O)(O)OP(=O)(O)O[C@H]3OC[C@H](O)[C@H](O)[C@H]3O)[C@@H](O)[C@H]2O)c(=O)[nH]1", "note": "[UDP-arabinose]", "Relative activity (%)^a": "88.5 ± 5.6"},
      {"molecule": "O=C(O)[C@H]1O[C@H](OP(=O)(O)OP(=O)(O)OC[C@H]2O[C@@H](n3ccc(=O)[nH]c3=O)[C@H](O)[C@@H]2O)[C@H](O)[C@@H](O)[C@H]1O", "note": "[UDP-galacturonic acid]", "Relative activity (%)^a": "33.4 ± 9.5"},
      {"molecule": "O=c1ccn([C@@H]2O[C@H](COP(=O)(O)OP(=O)(O)O[C@H]3OC[C@@H](O)[C@H](O)[C@H]3O)[C@@H](O)[C@H]2O)c(=O)[nH]1", "note": "[UDP-xylose]", "Relative activity (%)^a": "91.4 ± 5.6"},
      {"molecule": "O=c1ccn([C@@H]2O[C@H](COP(=O)(O)OP(=O)(O)O)[C@@H](O)[C@H]2O)c(=O)[nH]1", "note": "[UDP]", "Relative activity (%)^a": "72.6 ± 5.5"},
      {"molecule": "O=c1ccn([C@@H]2O[C@H](COP(=O)(O)O)[C@@H](O)[C@H]2O)c(=O)[nH]1", "note": "[UMP]", "Relative activity (%)^a": "92.6 ± 5.0"}
    ]},
    {"substrate": "O=C(O)[C@H]1O[C@H](OP(=O)(O)OP(=O)(O)OC[C@H]2O[C@@H](n3ccc(=O)[nH]c3=O)[C@H](O)[C@@H]2O)[C@H](O)[C@@H](O)[C@@H]1O", "assay": "HPLC anion exchange, UDP-GlcA depletion", "type": "biochemical, Geminicoccus roseus", "conditions": "1 mM NAD+, 50 mM Tris-HCl pH 7.9, 37 °C, 7 min", "text": "HPLC anion exchange, UDP-GlcA depletion on GrUAS", "units": {"Km": "µM", "Vmax": "µM/min"}, "values": [
      {"molecule": "B1", "Km": "251 ± 44.6", "Vmax": 4.22}
    ]},
    {"biological_target": "Geminicoccus roseus UDP-apiose/UDP-xylose synthase (GrUAS), recombinant His6-tagged (Geminicoccus roseus)", "assay": "SEC; Superdex75 gel filtration of purified recombinant GrUAS; mass estimated from the elution times of standard protein markers; activity of the fractions determined by HPLC; method as previously described [31]", "conditions": "not given", "values": [
      {"molecule": "Geminicoccus roseus UDP-apiose/UDP-xylose synthase (GrUAS), recombinant His6-tagged (enzyme)", "stoichiometry N": 2}
    ]}
  ]
}
